Measured values published in US20110118275A1, “OXAZOLO[4,5-c]PYRIDINE SUBSTITUTED PYRAZINE” (ASTRAZENECA AB, priority 2009, published 2011).
Blank lines part the entries; values can stand above or below the molecule they belong to.

Legend:
[1] = target: T1, recombinant human GSK3β (Homo sapiens, UniProt P49841); experiment: Determination of GSK3β activity in Scintillation Proximity Assay; type: biochemical; conditions: Km of ATP 3 μM used to calculate Ki; 1 μmol/L ATP; read-out: mean GSKβ Ki value
T1 construct: purchased Dundee University, UK
Method: Determination of GSK3β activity in Scintillation Proximity Assay.
The inhibition experiments were carried out in duplicate with 10 concentrations of the inhibitor in 384 well clear-bottom microtitre plates. A biotinylated peptide substrate (Biotin-Ala-Ala-Glu-Glu-Leu-Asp-Ser-Arg-Ala-Gly-Ser(PO3H2)-Pro-Gln-Leu (AstraZeneca, Lund)), was added at a final concentration of 1 μmol/L in an assay buffer (pH 7.0) containing 0.6 mU recombinant human GSK3β (Dundee University, UK), (˜5 nmol/L active enzyme), 10 mmol/L morpholinepropanesulfonic acid (MOPS), 0.3 mmol/L EDTA, 0.01% (v/v) (3-mercaptoethanol, 0.003% (w/v) polyethylene 23 lauryl ether (Brij 35), 0.4% glycerol and 0.02 mg bovine serum albumine (BSA) and preincubated for 10 minutes. The reaction was initiated by the addition of 0.06 μCi [γ-33P]ATP (Amersham, UK) and unlabelled ATP in 30 mmol/L Mg(Ac)2 to a final concentration of 1 μmol/L ATP. The final assay volume was 15 μL. Blank controls without peptide substrate were used. After incubation for 15 min at room temperature, the reaction was terminated by the to addition of stop solution containing 1.3 mmol/L EDTA, 13 μmol/L ATP, 0.02% Triton™X-100 and 0.15 mg streptavidin coated SPA beads. After a 5 minutes centrifugation at 2000 rpm, the radioactivity was measured in a liquid scintillation counter (1450 MicroBeta Trilux, Perkin Elmer, Finnland). […]

[2] = target: T2, recombinant Axl tyrosine kinase (Homo sapiens, UniProt P30530); experiment: In vitro Axl kinase assay (AlphaScreen); type: biochemical; conditions: Ki calculated from IC50, Km for ATP 0.2 μM
T2 construct: GST (N); made in house; host or cells: SF126 insect cells
T2 sequence (P30530 473-894): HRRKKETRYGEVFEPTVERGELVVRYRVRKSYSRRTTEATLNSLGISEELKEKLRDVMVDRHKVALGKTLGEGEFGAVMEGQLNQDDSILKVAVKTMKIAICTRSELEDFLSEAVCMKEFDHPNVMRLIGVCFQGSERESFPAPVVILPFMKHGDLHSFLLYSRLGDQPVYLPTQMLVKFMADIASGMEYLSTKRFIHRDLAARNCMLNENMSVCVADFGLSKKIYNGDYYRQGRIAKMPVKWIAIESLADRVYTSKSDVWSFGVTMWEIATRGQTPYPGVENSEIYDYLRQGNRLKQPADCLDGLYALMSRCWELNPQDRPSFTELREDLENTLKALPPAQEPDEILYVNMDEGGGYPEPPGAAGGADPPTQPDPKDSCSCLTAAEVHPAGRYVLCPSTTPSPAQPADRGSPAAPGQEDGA
Excerpt: Determination of the In Vitro Axl Kinase Assay.
The following assays can be used to measure the effects of the compounds of the present invention as inhibitors of Axl tyrosine kinase enzyme, as inhibitors in vitro of the phosphorylation of Axl expressed on NCI H1299 lung large cell carcinoma cells. The assay used AlphaScreen technology (Gray et al., Analytical Biochemistry, 2003, 313: 234-245) to determine the ability of test compounds to inhibit phosphorylation by recombinant Axl tyrosine kinase.
N-terminal GST-Axl kinase domain encompassing amino acids 473 to 894 of Axl (GenBank Accession No NM_021913) was expressed in […] insect cells and purified using the GST epitope tag, using standard purification techniques.
Test compounds were prepared as 10 mM stock solutions in dimethylsulphoxide (DMSO) and diluted in DMSO as required. […]
Each reaction was stopped by the addition of 5 μl of a mixture of 500 mM EDTA, 3 mg/ml bovine serum albumin (BSA) and 20 mM Tris-HCl pH 7.4 buffer containing 40 ng/μl AlphaScreen Streptavidin donor and anti-p-Tyr-100 acceptor beads (Perkin Elmer, Catalogue No. 6760620M). The resultant signals arising from laser light excitation at 680 nm were read using a Packard Envision instrument. […]

[3] = Hygroscopicity by Dynamic Vapor Sorption (DVS); type: physicochemical; conditions: 25° C.
Method: Description of the Dynamic Vapor Sorption (DVS) Method Used
The weight change over time as a function of relative humidity (RH) at 25° C. was measured in a DVS Advantage, equipped with a SMS ultrabalance using DVS Advantage Control Software Version 1.2.0.21, from Surface Measurement Systems, London, UK.
Carrier gas was nitrogen 200 ml/minute. The sample amount was circa 10 mg. The equilibrium criteria, for each step, was set to 0.002%/minute with DMDT Window 5 minutes, DMDT Min Time 10 minutes and DMDT Max Time 360 minutes as defined in the Control Software. DMDT uses the percentage rate of change of mass with time (dm/dt) to determine whether a sample has come to equilibrium.
DMDT Window (min): The time window, over which a straight line is fitted to the mass data in order to calculate a value of dm/dt.
DMDT Min Time (min): The time that the measured dm/dt must satisfy the specified dm/dt criteria before switching to the next Method Stage.
DMDT Max Time (min): The maximum time a Method Stage will run in dm/dt mode before switching to the next Method Stage—regardless of whether the dm/dt criterion has been satisfied.
The sample was initially dried at 0% RH and the water vapor sorption was measured as weight gain after stepwise increase to 10, 20, 30, 40, 50, 60, 70, 80, 90 and 95% relative humidity. After stepwise drying using the same relative humidities in reverse order down to 0% RH a second sorption curve was obtained.

T1 sequence (P49841 whole entry): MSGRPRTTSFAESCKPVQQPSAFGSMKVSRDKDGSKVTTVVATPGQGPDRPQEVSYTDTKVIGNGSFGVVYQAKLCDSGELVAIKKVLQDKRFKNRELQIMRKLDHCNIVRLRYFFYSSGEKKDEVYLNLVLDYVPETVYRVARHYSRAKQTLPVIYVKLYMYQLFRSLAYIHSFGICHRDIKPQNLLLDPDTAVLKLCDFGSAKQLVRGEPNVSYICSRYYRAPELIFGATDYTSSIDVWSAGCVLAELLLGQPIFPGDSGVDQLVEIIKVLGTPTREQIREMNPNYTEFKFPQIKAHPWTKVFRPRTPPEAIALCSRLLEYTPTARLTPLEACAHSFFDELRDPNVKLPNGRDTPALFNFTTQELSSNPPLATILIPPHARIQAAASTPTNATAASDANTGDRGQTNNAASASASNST

Ki [1]: 2.3 nM | Ki [2]: 113 nM | Average weight gain ([3]; 0% RH): 0.0% | Weight gain calculated as molar equivalents of water ([3]; 0% RH): 0.0 molar equivalents of water | Weight gain first sorption curve ([3]; 0% RH): 0.00% | Weight gain second sorption curve ([3]; 0% RH): 0.00% | Average weight gain ([3]; 10% RH): 0.1% | Weight gain calculated as molar equivalents of water ([3]; 10% RH): 0.0 molar equivalents of water | Weight gain first sorption curve ([3]; 10% RH): 0.12% | Weight gain second sorption curve ([3]; 10% RH): 0.14% | Average weight gain ([3]; 20% RH): 2.4% | Weight gain calculated as molar equivalents of water ([3]; 20% RH): 0.5 molar equivalents of water | Weight gain first sorption curve ([3]; 20% RH): 2.34% | Weight gain second sorption curve ([3]; 20% RH): 2.41% | Average weight gain ([3]; 30% RH): 3.1% | Weight gain calculated as molar equivalents of water ([3]; 30% RH): 0.7 molar equivalents of water | Weight gain first sorption curve ([3]; 30% RH): 3.09% | Weight gain second sorption curve ([3]; 30% RH): 3.14% | Average weight gain ([3]; 60% RH): 4.7% | Weight gain calculated as molar equivalents of water ([3]; 60% RH): 1.1 molar equivalents of water | Weight gain first sorption curve ([3]; 60% RH): 4.72% | Weight gain second sorption curve ([3]; 60% RH): 4.65% | Average weight gain ([3]; 90% RH): 9.2% | Weight gain calculated as molar equivalents of water ([3]; 90% RH): 2.1 molar equivalents of water | Weight gain first sorption curve ([3]; 90% RH): 9.16% | Weight gain second sorption curve ([3]; 90% RH): 9.19%
SMILES: CN1CCN(C(=O)c2ccc(-c3cnc(N)c(-c4nc5cnccc5o4)n3)cc2)CC1 [Example 1, (4-(5-Amino-6-(oxazolo[4,5-c]pyridin-2-yl)pyrazin-2-yl)phenyl)(4-methylpiperazin-1-yl)methanone]

Ki [1]: 3.2 nM
SMILES: Nc1ncc(-c2ccc(C(=O)N3CCNCC3)cc2)nc1-c1nc2cnccc2o1 [Example 14, (4-(5-Amino-6-(oxazolo[4,5-c]pyridin-2-yl)pyrazin-2-yl)phenyl)(piperazin-1-yl)methanone]
